The text below walks through data of publication PMC4770715, “LIM kinase inhibitors disrupt mitotic microtubule organization and impair tumor cell proliferation” (Oncotarget, 2015).

Some targets named below: CSNK1G1 (Homo sapiens, UniProt Q9HCP0); CSNK1G2 (Homo sapiens, UniProt P78368); FES (Homo sapiens, UniProt P07332); FRK (Homo sapiens, UniProt P42685); MAPKAPK2 (Homo sapiens, UniProt P49137); PDPK1 (Homo sapiens, UniProt O15530); PIK3C2G (Homo sapiens, UniProt O75747); PKMYT1 (Homo sapiens, UniProt Q99640); SRC (Homo sapiens, UniProt P12931); VRK2 (Homo sapiens, UniProt Q86Y07); WEE2 (Homo sapiens, UniProt P0C1S8).

What all share (assay): biochemical
What all share (design): KINOMEscan active-site competition binding, percent of control (100 = no competition)
Common to all, as to details: competition binding, percent control

The target of experiment [1] is T1, ABL1(T315I)-nonphosphorylated (Homo sapiens, UniProt P00519, T315I).
T1 construct: nonphosphorylated

A further experiment deals with T2, ASK2 (Homo sapiens, UniProt O95382).
T2 construct: gene MAP3K6

In another experiment the target is T3, DCAMKL1 (Homo sapiens, UniProt O15075).
T3 construct: gene DCLK1

The target in the next experiment is T4, ERK2 (Homo sapiens, UniProt P28482).
T4 construct: gene MAPK1

The next experiment addresses T5, ERK3 (Homo sapiens, UniProt Q16659).
T5 construct: gene MAPK6

A further experiment concerns the target T6, HPK1 (Homo sapiens, UniProt Q92918).
T6 construct: gene MAP4K1

Experiment [2] concerns the target T7, JAK1(JH1domain-catalytic) (Homo sapiens, UniProt P23458).
T7 construct: JH1domain-catalytic

The target of another experiment is T8, MLK2 (Homo sapiens, UniProt Q02779).
T8 construct: gene MAP3K10

The next experiment deals with T9, NDR2 (Homo sapiens, UniProt Q9Y2H1).
T9 construct: gene STK38L

A further experiment deals with T10, PCTK3 (Homo sapiens, UniProt Q07002).
T10 construct: gene CDK18

In experiment [3] the target is T11, RSK4(Kin.Dom.2-C-terminal) (Homo sapiens, UniProt Q9UK32).
T11 construct: gene RPS6KA6; Kin.Dom.2-C-terminal

Each structure is given as a SMILES string.

T5 sequence (Q16659 whole entry): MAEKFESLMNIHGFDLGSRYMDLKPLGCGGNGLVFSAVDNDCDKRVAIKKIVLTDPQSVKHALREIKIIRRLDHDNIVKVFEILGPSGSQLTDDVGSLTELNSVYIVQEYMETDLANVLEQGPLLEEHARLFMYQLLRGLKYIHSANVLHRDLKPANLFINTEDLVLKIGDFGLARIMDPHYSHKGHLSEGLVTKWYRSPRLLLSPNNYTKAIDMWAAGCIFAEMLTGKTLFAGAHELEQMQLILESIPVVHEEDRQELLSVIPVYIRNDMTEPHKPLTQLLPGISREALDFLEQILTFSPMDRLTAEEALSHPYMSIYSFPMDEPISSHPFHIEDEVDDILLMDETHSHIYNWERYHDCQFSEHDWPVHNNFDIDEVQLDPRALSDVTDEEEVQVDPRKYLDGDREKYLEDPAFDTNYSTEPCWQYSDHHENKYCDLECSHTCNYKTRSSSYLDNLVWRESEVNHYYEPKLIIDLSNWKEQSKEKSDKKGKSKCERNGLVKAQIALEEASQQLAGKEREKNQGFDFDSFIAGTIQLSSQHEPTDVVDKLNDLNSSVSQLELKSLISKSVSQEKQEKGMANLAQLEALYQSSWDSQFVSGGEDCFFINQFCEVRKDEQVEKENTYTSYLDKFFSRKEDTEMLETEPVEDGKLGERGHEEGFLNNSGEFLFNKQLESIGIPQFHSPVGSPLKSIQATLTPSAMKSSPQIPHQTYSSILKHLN
T10 sequence (Q07002 whole entry): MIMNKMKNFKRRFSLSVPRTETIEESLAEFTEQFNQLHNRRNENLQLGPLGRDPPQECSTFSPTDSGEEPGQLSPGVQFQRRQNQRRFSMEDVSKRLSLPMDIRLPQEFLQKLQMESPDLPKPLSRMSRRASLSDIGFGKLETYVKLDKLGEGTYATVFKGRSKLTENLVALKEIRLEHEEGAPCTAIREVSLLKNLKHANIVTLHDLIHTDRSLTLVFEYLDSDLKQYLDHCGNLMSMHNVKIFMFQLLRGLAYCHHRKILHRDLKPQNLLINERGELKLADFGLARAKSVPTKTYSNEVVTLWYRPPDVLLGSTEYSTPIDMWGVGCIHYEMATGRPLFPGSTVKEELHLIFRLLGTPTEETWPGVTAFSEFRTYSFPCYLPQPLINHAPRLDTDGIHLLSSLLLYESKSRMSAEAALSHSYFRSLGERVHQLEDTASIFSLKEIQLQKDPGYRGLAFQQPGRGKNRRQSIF
Sequence of MAPKAPK2 (P49137 whole entry): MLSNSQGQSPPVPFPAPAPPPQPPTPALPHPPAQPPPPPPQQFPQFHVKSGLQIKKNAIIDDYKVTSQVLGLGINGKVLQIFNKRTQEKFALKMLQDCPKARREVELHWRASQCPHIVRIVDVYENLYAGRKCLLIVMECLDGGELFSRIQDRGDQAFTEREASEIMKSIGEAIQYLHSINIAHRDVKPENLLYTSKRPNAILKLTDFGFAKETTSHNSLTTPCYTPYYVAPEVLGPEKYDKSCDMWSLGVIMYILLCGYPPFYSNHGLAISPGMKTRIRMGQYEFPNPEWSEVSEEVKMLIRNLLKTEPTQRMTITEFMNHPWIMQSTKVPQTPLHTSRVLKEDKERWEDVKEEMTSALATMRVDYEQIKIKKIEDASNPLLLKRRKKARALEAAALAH
Sequence of FRK (P42685 whole entry): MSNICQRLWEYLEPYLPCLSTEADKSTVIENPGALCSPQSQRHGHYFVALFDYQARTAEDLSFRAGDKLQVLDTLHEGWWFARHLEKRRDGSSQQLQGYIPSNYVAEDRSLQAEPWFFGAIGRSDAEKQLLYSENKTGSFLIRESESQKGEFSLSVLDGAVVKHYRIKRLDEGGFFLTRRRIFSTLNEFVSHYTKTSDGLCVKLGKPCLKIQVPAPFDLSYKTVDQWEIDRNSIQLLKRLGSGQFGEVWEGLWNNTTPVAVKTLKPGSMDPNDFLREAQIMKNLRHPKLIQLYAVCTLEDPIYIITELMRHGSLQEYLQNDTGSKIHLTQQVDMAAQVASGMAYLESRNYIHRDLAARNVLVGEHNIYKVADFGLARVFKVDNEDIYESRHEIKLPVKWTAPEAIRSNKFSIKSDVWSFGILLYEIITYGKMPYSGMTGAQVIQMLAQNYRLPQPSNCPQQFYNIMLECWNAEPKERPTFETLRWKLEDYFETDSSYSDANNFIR
Sequence of WEE2 (P0C1S8 whole entry): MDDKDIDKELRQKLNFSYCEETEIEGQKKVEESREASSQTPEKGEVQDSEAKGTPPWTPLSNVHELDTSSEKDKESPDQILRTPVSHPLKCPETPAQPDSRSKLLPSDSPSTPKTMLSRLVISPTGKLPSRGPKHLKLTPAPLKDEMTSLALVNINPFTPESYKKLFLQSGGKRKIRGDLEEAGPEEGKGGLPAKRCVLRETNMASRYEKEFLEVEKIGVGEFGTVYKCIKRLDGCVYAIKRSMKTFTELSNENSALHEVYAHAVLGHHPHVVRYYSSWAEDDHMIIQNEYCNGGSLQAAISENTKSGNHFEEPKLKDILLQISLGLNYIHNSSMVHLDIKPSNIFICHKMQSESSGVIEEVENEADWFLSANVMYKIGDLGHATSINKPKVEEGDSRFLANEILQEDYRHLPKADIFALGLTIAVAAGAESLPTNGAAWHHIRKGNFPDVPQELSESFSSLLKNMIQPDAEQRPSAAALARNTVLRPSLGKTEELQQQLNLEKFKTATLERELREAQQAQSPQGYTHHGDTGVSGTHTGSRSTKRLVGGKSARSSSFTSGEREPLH
Sequence of CSNK1G1 (Q9HCP0 whole entry): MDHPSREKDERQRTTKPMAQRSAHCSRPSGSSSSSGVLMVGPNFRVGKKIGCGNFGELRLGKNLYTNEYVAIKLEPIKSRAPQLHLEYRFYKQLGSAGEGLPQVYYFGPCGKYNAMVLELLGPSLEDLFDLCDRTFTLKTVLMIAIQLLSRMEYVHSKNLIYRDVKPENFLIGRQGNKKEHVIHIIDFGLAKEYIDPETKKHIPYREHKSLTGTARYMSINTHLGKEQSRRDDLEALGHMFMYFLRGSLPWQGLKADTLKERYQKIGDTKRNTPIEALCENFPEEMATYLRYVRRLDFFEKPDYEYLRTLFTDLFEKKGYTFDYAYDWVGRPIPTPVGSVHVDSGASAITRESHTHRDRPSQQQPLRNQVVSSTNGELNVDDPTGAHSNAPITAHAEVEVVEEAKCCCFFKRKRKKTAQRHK
Sequence of PDPK1 (O15530 whole entry): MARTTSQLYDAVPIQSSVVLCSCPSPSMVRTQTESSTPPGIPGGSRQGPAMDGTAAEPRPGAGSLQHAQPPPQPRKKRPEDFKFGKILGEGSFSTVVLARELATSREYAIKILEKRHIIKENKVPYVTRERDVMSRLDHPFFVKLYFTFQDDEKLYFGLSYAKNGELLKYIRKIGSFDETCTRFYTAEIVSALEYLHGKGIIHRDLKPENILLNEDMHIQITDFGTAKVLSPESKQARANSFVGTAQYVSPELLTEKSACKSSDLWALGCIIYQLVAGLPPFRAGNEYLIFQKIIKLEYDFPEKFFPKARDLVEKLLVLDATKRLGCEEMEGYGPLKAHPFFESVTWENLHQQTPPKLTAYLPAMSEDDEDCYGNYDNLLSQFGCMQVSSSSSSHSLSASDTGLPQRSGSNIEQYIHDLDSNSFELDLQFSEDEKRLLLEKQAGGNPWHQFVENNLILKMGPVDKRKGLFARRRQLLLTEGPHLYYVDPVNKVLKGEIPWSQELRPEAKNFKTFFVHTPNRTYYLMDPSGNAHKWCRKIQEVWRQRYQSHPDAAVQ
Sequence of CSNK1G2 (P78368 whole entry): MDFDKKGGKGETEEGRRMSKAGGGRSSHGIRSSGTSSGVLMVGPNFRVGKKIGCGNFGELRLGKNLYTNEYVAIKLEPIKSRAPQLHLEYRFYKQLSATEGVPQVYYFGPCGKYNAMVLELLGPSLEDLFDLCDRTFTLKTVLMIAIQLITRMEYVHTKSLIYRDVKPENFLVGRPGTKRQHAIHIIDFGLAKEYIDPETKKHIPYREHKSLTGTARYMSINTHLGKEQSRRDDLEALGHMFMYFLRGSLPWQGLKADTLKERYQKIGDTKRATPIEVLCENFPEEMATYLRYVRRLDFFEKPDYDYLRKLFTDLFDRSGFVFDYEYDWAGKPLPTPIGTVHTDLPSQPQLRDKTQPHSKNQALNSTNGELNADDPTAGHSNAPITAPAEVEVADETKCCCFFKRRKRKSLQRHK
T11 sequence (Q9UK32 whole entry): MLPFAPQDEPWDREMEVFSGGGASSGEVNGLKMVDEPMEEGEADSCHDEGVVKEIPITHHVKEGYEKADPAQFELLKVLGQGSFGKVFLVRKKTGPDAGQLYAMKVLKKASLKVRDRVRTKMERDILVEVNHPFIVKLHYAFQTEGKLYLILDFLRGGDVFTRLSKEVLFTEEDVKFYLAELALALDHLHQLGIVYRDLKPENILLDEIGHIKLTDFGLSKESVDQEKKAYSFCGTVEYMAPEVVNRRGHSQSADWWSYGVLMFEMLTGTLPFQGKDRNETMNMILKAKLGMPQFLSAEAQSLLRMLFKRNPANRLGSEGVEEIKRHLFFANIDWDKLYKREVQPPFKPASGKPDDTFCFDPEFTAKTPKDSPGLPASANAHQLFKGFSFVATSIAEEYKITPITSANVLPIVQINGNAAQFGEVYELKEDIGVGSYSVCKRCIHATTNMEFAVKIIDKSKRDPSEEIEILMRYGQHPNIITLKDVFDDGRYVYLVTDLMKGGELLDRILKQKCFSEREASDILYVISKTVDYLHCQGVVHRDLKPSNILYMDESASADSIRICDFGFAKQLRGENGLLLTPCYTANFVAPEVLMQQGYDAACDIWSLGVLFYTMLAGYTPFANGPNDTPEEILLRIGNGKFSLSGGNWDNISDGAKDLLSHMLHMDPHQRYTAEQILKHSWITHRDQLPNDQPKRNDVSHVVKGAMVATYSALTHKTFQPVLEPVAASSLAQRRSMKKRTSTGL

Turning to `COc1ccc(-c2cnccc2-c2cnc(NC(=O)C(C)C)s2)c(C(F)(F)F)c1` [CRT0105446, N-{5-[3-(4-Methoxy-2-trifluoromethyl-phenyl)-pyridin-4-yl]-hiazol-2-yl}-isobutyramide], the remaining binding at 10 µM in [1] is 100%; at ASK2 it was 100%; on CSNK1G1, 94%; at CSNK1G2, 55%; at DCAMKL1, 46%; at ERK2, 100%. Moreover, the remaining binding at 10 µM worked out at 100% on ERK3; 87% on FES; 98% on FRK; 100% on HPK1; 89% in experiment [2]; 100% on MAPKAPK2. Besides, the remaining binding at 10 µM was found to be 69% on MLK2; 82% at NDR2; 7.7% on PCTK3; 100% at PDPK1; 100% on PIK3C2G; 100% on PKMYT1. Further, the remaining binding at 10 µM in experiment [3] came to 16%; at SRC it was 100%; at VRK2, 95%; at WEE2, 100%.

Consider `Cc1ccc(-c2cnccc2-c2cnc(Nc3ccc(O)cc3)s2)c(Cl)c1` [CRT0105950, 4-{5-[3-(2-Chloro-4-methyl-phenyl)-pyridin-4-yl]-thiazol-2-ylamino}-phenol], for which the remaining binding at 10 µM in experiment [1] turned out to be 82%; at ASK2, 100%; at CSNK1G1, 82%; at CSNK1G2, 30%; at DCAMKL1, 75%; on ERK2, 100%. For the same molecule, the remaining binding at 10 µM on ERK3 stood at 97%; on FES, 93%; on FRK it was 59%; at HPK1, 22%; in [2], 53%; on MAPKAPK2 it was 100%. In addition, the remaining binding at 10 µM turned out to be 40% on MLK2; 80% at NDR2; 68% at PCTK3; 28% on PDPK1; 95% on PIK3C2G; 100% at PKMYT1. For the same molecule, the remaining binding at 10 µM in experiment [3] was determined as 2.9%; on SRC it was 82%; on VRK2, 72%; at WEE2, 100%.
